Results taken from ChEMBL document CHEMBL5444388, “Affinity Phenotypic Cellular Literature for EUbOPEN Chemogenomic Library” (2024).

Experiments:
Format in all cases: functional, cell-based
Design in all cases: recommended concentration 100 nM
[1] = target: Centromere-associated protein E (Homo sapiens) (UniProt Q02224); assay: Affinity Phenotypic Cellular interaction: (Cell-growth inhibition assays (growth inhibitory effect colon cancer cell line U251)) EUB0000734a CENPE; details: U-251, Affinity Phenotypic Cellular Source Knowledge https://pubmed.ncbi.nlm.nih.gov/20167803/
[2] = target: Centromere-associated protein E (Homo sapiens) (UniProt Q02224); assay: Affinity Phenotypic Cellular interaction: (Cell-growth inhibition assays (growth inhibitory effect colon cancer cell line SW-954)) EUB0000734a CENPE; details: Affinity Phenotypic Cellular Source Knowledge https://pubmed.ncbi.nlm.nih.gov/20167803/
[3] = target: Centromere-associated protein E (Homo sapiens) (UniProt Q02224); assay: Affinity Phenotypic Cellular interaction: (Cell-growth inhibition assays (growth inhibitory effect colon cancer cell line SNB-75)) EUB0000734a CENPE; details: Affinity Phenotypic Cellular Source Knowledge https://pubmed.ncbi.nlm.nih.gov/20167803/
[4] = target: Centromere-associated protein E (Homo sapiens) (UniProt Q02224); assay: Affinity Phenotypic Cellular interaction: (Cell-growth inhibition assays (growth inhibitory effect colon cancer cell line BC-3)) EUB0000734a CENPE; details: Affinity Phenotypic Cellular Source Knowledge https://pubmed.ncbi.nlm.nih.gov/20167803/
[5] = target: Centromere-associated protein E (Homo sapiens) (UniProt Q02224); assay: Affinity Phenotypic Cellular interaction: (Cell-growth inhibition assays (growth inhibitory effect colon cancer cell line MOLT-16)) EUB0000734a CENPE; details: Affinity Phenotypic Cellular Source Knowledge https://pubmed.ncbi.nlm.nih.gov/20167803/
[6] = target: Centromere-associated protein E (Homo sapiens) (UniProt Q02224); assay: Affinity Phenotypic Cellular interaction: (Cell-growth inhibition assays (growth inhibitory effect colon cancer cell line Raji)) EUB0000734a CENPE; details: Affinity Phenotypic Cellular Source Knowledge https://pubmed.ncbi.nlm.nih.gov/20167803/
[7] = target: Centromere-associated protein E (Homo sapiens) (UniProt Q02224); assay: Affinity Phenotypic Cellular interaction: (Cell-growth inhibition assays (growth inhibitory effect colon cancer cell line CESS)) EUB0000734a CENPE; details: Affinity Phenotypic Cellular Source Knowledge https://pubmed.ncbi.nlm.nih.gov/20167803/
[8] = target: Centromere-associated protein E (Homo sapiens) (UniProt Q02224); assay: Affinity Phenotypic Cellular interaction: (Cell-growth inhibition assays (growth inhibitory effect colon cancer cell line SW1417)) EUB0000734a CENPE; details: Affinity Phenotypic Cellular Source Knowledge https://pubmed.ncbi.nlm.nih.gov/20167803/
[9] = target: Centromere-associated protein E (Homo sapiens) (UniProt Q02224); assay: Affinity Phenotypic Cellular interaction: (Cell-growth inhibition assays (growth inhibitory effect colon cancer cell line HEC-1-B)) EUB0000734a CENPE; details: Affinity Phenotypic Cellular Source Knowledge https://pubmed.ncbi.nlm.nih.gov/20167803/
[10] = target: Centromere-associated protein E (Homo sapiens) (UniProt Q02224); assay: Affinity Phenotypic Cellular interaction: (Cell-growth inhibition assays (growth inhibitory effect colon cancer cell line HCC1143)) EUB0000734a CENPE; details: Affinity Phenotypic Cellular Source Knowledge https://pubmed.ncbi.nlm.nih.gov/20167803/
[11] = target: Centromere-associated protein E (Homo sapiens) (UniProt Q02224); assay: Affinity Phenotypic Cellular interaction: (Cell-growth inhibition assays (growth inhibitory effect colon cancer cell line COLO205)) EUB0000734a CENPE; details: COLO 205, Affinity Phenotypic Cellular Source Knowledge https://pubmed.ncbi.nlm.nih.gov/20167803/
[12] = target: Centromere-associated protein E (Homo sapiens) (UniProt Q02224); assay: Affinity Phenotypic Cellular interaction: (Cell-growth inhibition assays (growth inhibitory effect colon cancer cell line CML-T1)) EUB0000734a CENPE; details: Affinity Phenotypic Cellular Source Knowledge https://pubmed.ncbi.nlm.nih.gov/20167803/
[13] = target: Centromere-associated protein E (Homo sapiens) (UniProt Q02224); assay: Affinity Phenotypic Cellular interaction: (Cell-growth inhibition assays (growth inhibitory effect thyroid cancer cell line SW579)) EUB0000734a CENPE; details: Affinity Phenotypic Cellular Source Knowledge https://pubmed.ncbi.nlm.nih.gov/20167803/
[14] = target: Centromere-associated protein E (Homo sapiens) (UniProt Q02224); assay: Affinity Phenotypic Cellular interaction: (Cell-growth inhibition assays (growth inhibitory effect colon cancer cell line OVCAR-5)) EUB0000734a CENPE; details: Affinity Phenotypic Cellular Source Knowledge https://pubmed.ncbi.nlm.nih.gov/20167803/
[15] = target: Centromere-associated protein E (Homo sapiens) (UniProt Q02224); assay: Affinity Phenotypic Cellular interaction: (Cell-growth inhibition assays (growth inhibitory effect colon cancer cell line OVCAR-3)) EUB0000734a CENPE; details: Affinity Phenotypic Cellular Source Knowledge https://pubmed.ncbi.nlm.nih.gov/20167803/
[16] = target: Centromere-associated protein E (Homo sapiens) (UniProt Q02224); assay: Affinity Phenotypic Cellular interaction: (Cell-growth inhibition assays (growth inhibitory effect colon cancer cell line SHP-77)) EUB0000734a CENPE; details: SHP77, Affinity Phenotypic Cellular Source Knowledge https://pubmed.ncbi.nlm.nih.gov/20167803/
[17] = target: Centromere-associated protein E (Homo sapiens) (UniProt Q02224); assay: Affinity Phenotypic Cellular interaction: (Cell-growth inhibition assays (growth inhibitory effect colon cancer cell line CAL-54)) EUB0000734a CENPE; details: Affinity Phenotypic Cellular Source Knowledge https://pubmed.ncbi.nlm.nih.gov/20167803/
[18] = target: Centromere-associated protein E (Homo sapiens) (UniProt Q02224); assay: Affinity Phenotypic Cellular interaction: (Cell-growth inhibition assays (growth inhibitory effect colon cancer cell line SCC-25)) EUB0000734a CENPE; details: Affinity Phenotypic Cellular Source Knowledge https://pubmed.ncbi.nlm.nih.gov/20167803/
[19] = target: Centromere-associated protein E (Homo sapiens) (UniProt Q02224); assay: Affinity Phenotypic Cellular interaction: (Cell-growth inhibition assays (growth inhibitory effect colon cancer cell line SF-295)) EUB0000734a CENPE; details: Affinity Phenotypic Cellular Source Knowledge https://pubmed.ncbi.nlm.nih.gov/20167803/
[20] = target: Centromere-associated protein E (Homo sapiens) (UniProt Q02224); assay: Affinity Phenotypic Cellular interaction: (Cell-growth inhibition assays (growth inhibitory effect colon cancer cell line SW1990)) EUB0000734a CENPE; details: Affinity Phenotypic Cellular Source Knowledge https://pubmed.ncbi.nlm.nih.gov/20167803/
[21] = target: Centromere-associated protein E (Homo sapiens) (UniProt Q02224); assay: Affinity Phenotypic Cellular interaction: (Cell-growth inhibition assays (growth inhibitory effect colon cancer cell line CCF-STTG1)) EUB0000734a CENPE; details: Affinity Phenotypic Cellular Source Knowledge https://pubmed.ncbi.nlm.nih.gov/20167803/
[22] = target: Centromere-associated protein E (Homo sapiens) (UniProt Q02224); assay: Affinity Phenotypic Cellular interaction: (Cell-growth inhibition assays (growth inhibitory effect colon cancer cell line SN12C)) EUB0000734a CENPE; details: Affinity Phenotypic Cellular Source Knowledge https://pubmed.ncbi.nlm.nih.gov/20167803/
[23] = target: Centromere-associated protein E (Homo sapiens) (UniProt Q02224); assay: Affinity Phenotypic Cellular interaction: (Cell-growth inhibition assays (growth inhibitory effect colon cancer cell line HN5)) EUB0000734a CENPE; details: Affinity Phenotypic Cellular Source Knowledge https://pubmed.ncbi.nlm.nih.gov/20167803/
[24] = target: Centromere-associated protein E (Homo sapiens) (UniProt Q02224); assay: Affinity Phenotypic Cellular interaction: (Cell-growth inhibition assays (growth inhibitory effect colon cancer cell line HOP-62)) EUB0000734a CENPE; details: Affinity Phenotypic Cellular Source Knowledge https://pubmed.ncbi.nlm.nih.gov/20167803/
[25] = target: Centromere-associated protein E (Homo sapiens) (UniProt Q02224); assay: Affinity Phenotypic Cellular interaction: (Cell-growth inhibition assays (growth inhibitory effect colon cancer cell line SR)) EUB0000734a CENPE; details: Affinity Phenotypic Cellular Source Knowledge https://pubmed.ncbi.nlm.nih.gov/20167803/

Sequence of Centromere-associated protein E (Homo sapiens) (Q02224 whole entry): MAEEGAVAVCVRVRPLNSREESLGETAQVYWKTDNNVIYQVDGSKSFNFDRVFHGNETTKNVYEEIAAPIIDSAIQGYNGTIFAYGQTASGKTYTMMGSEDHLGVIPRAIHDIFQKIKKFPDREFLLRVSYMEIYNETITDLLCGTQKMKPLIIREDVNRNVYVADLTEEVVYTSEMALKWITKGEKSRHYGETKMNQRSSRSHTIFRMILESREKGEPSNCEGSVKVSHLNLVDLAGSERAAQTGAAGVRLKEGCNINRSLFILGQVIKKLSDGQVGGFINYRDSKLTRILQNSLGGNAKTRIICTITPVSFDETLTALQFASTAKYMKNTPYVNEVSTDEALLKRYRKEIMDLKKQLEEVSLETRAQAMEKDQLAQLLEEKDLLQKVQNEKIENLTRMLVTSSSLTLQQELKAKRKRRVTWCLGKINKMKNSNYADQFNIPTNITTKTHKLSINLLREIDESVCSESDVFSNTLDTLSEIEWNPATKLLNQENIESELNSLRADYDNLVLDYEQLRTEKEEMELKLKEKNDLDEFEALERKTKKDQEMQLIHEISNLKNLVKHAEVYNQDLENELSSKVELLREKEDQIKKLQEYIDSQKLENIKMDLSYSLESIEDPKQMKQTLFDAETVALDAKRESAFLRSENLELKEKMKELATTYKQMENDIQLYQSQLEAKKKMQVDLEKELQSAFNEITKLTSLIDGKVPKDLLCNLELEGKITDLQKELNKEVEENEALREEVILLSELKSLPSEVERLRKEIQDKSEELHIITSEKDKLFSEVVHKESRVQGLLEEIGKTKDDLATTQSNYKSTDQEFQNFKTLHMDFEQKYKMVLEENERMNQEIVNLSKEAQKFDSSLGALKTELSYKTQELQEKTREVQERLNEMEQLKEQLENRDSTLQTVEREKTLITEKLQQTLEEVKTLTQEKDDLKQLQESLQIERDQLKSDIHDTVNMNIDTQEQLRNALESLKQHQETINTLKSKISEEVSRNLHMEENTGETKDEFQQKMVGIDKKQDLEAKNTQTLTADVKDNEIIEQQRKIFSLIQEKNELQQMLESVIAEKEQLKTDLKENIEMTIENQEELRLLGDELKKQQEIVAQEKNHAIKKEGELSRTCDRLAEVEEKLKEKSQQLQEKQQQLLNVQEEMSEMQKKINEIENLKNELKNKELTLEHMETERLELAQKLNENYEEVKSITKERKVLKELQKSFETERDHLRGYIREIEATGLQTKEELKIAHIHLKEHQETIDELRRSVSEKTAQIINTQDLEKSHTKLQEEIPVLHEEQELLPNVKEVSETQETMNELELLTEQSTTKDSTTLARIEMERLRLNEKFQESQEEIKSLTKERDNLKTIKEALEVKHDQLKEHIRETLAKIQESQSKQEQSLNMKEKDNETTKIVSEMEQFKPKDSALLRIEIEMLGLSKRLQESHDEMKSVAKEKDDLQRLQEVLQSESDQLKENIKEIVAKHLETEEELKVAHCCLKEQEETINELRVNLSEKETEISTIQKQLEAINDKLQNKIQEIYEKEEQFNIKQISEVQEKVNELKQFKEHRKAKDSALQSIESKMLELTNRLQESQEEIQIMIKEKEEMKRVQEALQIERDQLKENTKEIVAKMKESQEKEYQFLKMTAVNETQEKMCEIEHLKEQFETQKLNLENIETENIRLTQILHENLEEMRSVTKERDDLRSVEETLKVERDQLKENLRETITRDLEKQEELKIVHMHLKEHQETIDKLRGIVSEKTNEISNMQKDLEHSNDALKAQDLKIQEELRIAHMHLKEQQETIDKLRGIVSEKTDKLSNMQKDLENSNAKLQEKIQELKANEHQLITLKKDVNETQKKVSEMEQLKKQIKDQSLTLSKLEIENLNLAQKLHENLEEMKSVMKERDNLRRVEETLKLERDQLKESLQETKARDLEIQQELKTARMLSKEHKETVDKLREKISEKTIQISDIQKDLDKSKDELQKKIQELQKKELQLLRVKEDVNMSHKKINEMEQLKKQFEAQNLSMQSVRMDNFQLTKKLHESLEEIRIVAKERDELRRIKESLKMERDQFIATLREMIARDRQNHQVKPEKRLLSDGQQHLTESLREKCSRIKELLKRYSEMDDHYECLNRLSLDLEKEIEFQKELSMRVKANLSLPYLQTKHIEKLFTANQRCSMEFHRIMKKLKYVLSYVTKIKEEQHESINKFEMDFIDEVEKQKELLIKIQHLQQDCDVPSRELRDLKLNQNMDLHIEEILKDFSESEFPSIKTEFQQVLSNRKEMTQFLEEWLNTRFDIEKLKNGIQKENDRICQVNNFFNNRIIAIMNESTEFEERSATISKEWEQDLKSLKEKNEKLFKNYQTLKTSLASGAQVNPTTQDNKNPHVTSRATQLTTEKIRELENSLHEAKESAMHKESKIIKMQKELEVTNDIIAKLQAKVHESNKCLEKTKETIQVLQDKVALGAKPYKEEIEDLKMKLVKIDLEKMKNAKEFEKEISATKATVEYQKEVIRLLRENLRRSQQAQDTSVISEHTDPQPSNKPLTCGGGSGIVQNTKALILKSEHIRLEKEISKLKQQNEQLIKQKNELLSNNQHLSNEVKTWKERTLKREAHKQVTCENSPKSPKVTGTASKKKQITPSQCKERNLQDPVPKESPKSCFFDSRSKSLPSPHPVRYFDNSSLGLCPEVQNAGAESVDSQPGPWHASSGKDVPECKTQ

## CC(C)Oc1ccc(C(=O)N[C@H](CNC(=O)CN(C)C)Cc2ccc(-c3cn4cccc([C@H](C)O)c4n3)cc2)cc1Cl
[1]
  GIC50: 26 nM
[2]
  GIC50: 22 nM
[3]
  GIC50: 26 nM
[4]
  GIC50: 88 nM
[5]
  GIC50: 47 nM
[6]
  GIC50: 41 nM
[7]
  GIC50: 19 nM
[8]
  GIC50: 29 nM
[9]
  GIC50: 28 nM
[10]
  GIC50: 27 nM
[11]
  GIC50: 25 nM
[12]
  GIC50: 13 nM
[13]
  GIC50: 26 nM
[14]
  GIC50: 34 nM
[15]
  GIC50: 42 nM
[16]
  GIC50: 86 nM
[17]
  GIC50: 49 nM
[18]
  GIC50: 23 nM
[19]
  GIC50: 35 nM
[20]
  GIC50: 127 nM
[21]
  GIC50: 24 nM
[22]
  GIC50: 29 nM
[23]
  GIC50: 118 nM
[24]
  GIC50: 20 nM
[25]
  GIC50: 29 nM
